Data on four compounds can be found in US20250375471A1, “HEPARANASE INHIBITORS AND METHODS OF USE” (The Board of Regents of the University of Oklahoma, priority 2022, published 2025).

“Also recorded” adds a separate entry of the source.

The conditions of data set [1]: background; cited from earlier work.
Data set [2] has as its target T1, HIT antibody complex (Platelet Factor 4 and antibody) (Homo sapiens, UniProt P02776).
T1 sequence (P02776 32-101): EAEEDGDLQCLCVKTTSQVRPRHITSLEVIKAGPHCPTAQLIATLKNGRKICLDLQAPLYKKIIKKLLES
The procedure:
ELISA methodology was used to measure the bound antibody as measured by absorbance (at 415 nm) of the product derived from a chromogenic substrate by the enzyme on the secondary antibody probe. […] Heparin derivatives treated to reduce their anticoagulant activity (non-anticoagulant heparin (NACH) or Roneparstat (Rone)) were also tested in the HIT assay.

Data set [3] has as its target T2, Recombinant human heparanase (Homo sapiens, UniProt Q9Y251).
T2 construct: purchased R&D Systems; Minneapolis, MN
T2 sequence (Q9Y251 158-543 limits assumed): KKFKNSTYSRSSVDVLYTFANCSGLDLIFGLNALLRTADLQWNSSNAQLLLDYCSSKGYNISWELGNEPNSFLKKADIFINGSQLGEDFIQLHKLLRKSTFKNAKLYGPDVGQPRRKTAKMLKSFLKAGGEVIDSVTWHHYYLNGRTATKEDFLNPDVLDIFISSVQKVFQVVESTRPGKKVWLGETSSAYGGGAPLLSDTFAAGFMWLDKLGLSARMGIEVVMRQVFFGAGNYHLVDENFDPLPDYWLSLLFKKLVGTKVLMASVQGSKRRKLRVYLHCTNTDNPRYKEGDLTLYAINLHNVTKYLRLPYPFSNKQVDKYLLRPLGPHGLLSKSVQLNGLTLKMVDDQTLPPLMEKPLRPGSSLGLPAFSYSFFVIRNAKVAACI
T2 sequence (Q9Y251 36-109 limits assumed): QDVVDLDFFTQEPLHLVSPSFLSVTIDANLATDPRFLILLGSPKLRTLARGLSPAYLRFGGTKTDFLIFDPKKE
Put plainly: Heparanase challenge (PAGE, Stains-All detection). The data set is classed as biochemical. The settings on record: heparanase 73 ng, sTestan 180 ng, 24 hours, pH 5, 30° C. The procedure: The reactions were analyzed by polyacrylamide gel electrophoresis (20% gels, 1×TBE) and Stains-All detection.

Data set [4] concerns the target T2, Recombinant human heparanase. In words: Gel-based heparanase enzyme inhibition assay, fluorescent synthetic O-sulfated heparosan substrate. Format: biochemical. An excerpt: (§1) A gel-based assay was used to monitor the catalytic action of recombinant human heparanase (R&D Systems; Minneapolis, MN) on polysaccharide substrates. In these assays, fluorescent chains were monitored for cleavage; the disappearance of the parental substrate band is readily noticeable. Each chain contains multiple, overlapping heparanase cut sites so there is a gradual decrease in molecular weight over time. This simple, defined assay directly monitors the digestion of polysaccharides (i.e., glycans>˜20 monosaccharide units) that approximate naturally occurring substrates.
(§2) Two types of substrates were employed to follow heparanase activity: (i) a fluorescein end-labeled synthetic O-sulfated O-linked heparosan or (ii) polyacrylamide gel electrophoretically-purified rhodamine-tagged HS. Heparanase (1.3 ng/μl final) was incubated with substrate (synthetic, 57 ng/μl; HS, 3.3 ng/μl) for various times (typically ˜0.2-5 h) in 50 mM sodium acetate, pH 5, 1 mg/ml acetylated bovine serum albumin (Promega; Madison, WI) at 30° C. Aliquots of reactions were analyzed by polyacrylamide gel electrophoresis (2 μl of reaction/lane; 20% gels, 1×TBE) and fluorescence imaging (5-120 sec exposures; ChemiDoc MP). Then the overall size range of the polysaccharide fragments was followed by Stains-All detection.

The target is the same in data set [5]. In words: Gel-based heparanase enzyme inhibition assay, natural heparan sulfate (HS) substrate. Format: biochemical. As to conditions: various substrate to inhibitor ratios, 30 min time-point.
Source text: as §1, §2

`CC(C)CCC[C@@H](C)[C@H]1CC[C@H]2[C@@H]3CC[C@H]4C[C@@H](O[C@@H]5O[C@H](COS(=O)(=O)O)[C@@H](O[C@H]6O[C@H](COS(=O)(=O)O)[C@@H](O[C@H]7O[C@H](COS(=O)(=O)O)[C@@H](O[C@H]8O[C@H](COS(=O)(=O)O)[C@@H](OS(=O)(=O)O)[C@H](OS(=O)(=O)O)[C@H]8OS(=O)(=O)O)[C@H](OS(=O)(=O)O)[C@H]7OS(=O)(=O)O)[C@H](OS(=O)(=O)O)[C@H]6OS(=O)(=O)O)[C@H](OS(=O)(=O)O)[C@H]5OS(=O)(=O)O)CC[C@]4(C)[C@H]3CC[C@]12C` [PG545]: the cell toxicity result in data set [1] is “lacks significant anticoagulant activity and cell toxicity”.

On to Roneparstat, for which the “HIT complex reactivity (competition with plate-bound heparin)” value in data set [2] is given as “less reactive”.

As to heparin, the “HIT complex reactivity (competition with plate-bound heparin)” value in data set [2] is given as “competed well”.

For “sulfated or sulfonated testosteronan [sTestan]”, the “digestion/cleavage by human heparanase” value in data set [3] was “recalcitrant to the action of heparanase; also recorded: recalcitrant to digestion by heparanase”. Further, the “fold more active on a molar basis than the heparosan substrate” value in data set [4] is at least 100 fold. Further, the “heparanase inhibitor potency compared with generic Roneparstat” value in data set [4] (FIG. 7) was “similarly potent; also recorded: potent competitive inhibitor of human heparanase similar to a known heparanase inhibitor”. In data set [4] (titration of inhibitor, 15-min time point, PAGE), the “inhibition of heparanase cleavage of fluorescent sulfo-O-linked heparosan substrate” value is “inhibited the digestion of the substrate; also recorded: competitive inhibitor of heparanase”. In addition, in data set [5], the “inhibition of heparanase digestion of natural HS substrate” value was “protecting natural HS from human heparanase digestion”.
